Reference: patent publication US7858608B2, “Bile acid derivatives as FXR ligands for the prevention or treatment of FXR-mediated diseases or conditions” (Intercept Pharmaceuticals, Inc., priority 2006, dated 2010)
pEC50: −log10 of the molar value. Where two headings read alike, the source gives them in different places.

Experiments:
[1] = test system: FXR regulated genes (SHP, CYP7α1, SREPB-1c, FAS, BSEP); conditions: human, 18 h, 10 μM
Text: Human hepatocyte cell line HepG2 was used for these studies.
The effects of these ligands on FXR responsive genes was then investigated by quantitative reverse transcription PCR (qRT-PCR).

[2] = test system: HepG2 cells; experiment: Direct cell toxicity on exposure of HepG2 cells; assay type: cell-based, human; conditions: HepG2 cells exposed to the ligands
[3] = biological target: T1, FXR (Homo sapiens, UniProt Q96RI1); experiment: Cell-free FRET assay, recruitment of the SRC1 peptide to FXR; assay type: biochemical; conditions: for Potency in activating FXR relative to CDCA (concentration for Scr-1 recruitment lower than CDCA): cell-free FRET assay, versus CDCA
T1 sequence (Q96RI1 1-486): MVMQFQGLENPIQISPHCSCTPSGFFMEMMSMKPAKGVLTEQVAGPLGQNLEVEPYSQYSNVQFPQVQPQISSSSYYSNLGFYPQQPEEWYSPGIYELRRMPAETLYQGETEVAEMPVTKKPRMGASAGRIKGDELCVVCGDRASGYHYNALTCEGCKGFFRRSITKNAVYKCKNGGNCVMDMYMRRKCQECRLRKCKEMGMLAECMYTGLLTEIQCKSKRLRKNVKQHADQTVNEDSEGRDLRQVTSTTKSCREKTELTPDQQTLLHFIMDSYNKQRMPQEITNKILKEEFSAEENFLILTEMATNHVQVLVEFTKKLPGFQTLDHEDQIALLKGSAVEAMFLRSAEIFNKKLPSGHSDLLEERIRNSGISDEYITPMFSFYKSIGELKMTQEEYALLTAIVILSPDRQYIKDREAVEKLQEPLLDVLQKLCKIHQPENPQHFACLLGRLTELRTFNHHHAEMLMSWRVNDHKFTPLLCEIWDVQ
Text: This technology, a cell free assay, is described in […]., et al. J Med Chem. 2002 15; 45:3569-72).

[4] = biological target: T1, FXR; experiment: Cell transfection (transactivation) assay in HepG2 cell line; assay type: cell-based; parameters: expressed in transfected cells; host or cells: HepG2; conditions: HepG2 cells, 1 μM
Procedure: It was also evaluated if compound (Ia) modulated FXR-regulated genes in a cellular assay using a human hepatocyte cell line (HepG2). […] A detailed description of these methods can be found in the following reference: Fiorucci S., et al. Gastroenterology 2004.

[5] = test system: FXR or other nuclear receptors; experiment: Liver cells transfected with viral constructs carrying FXR or other nuclear receptors upstream of the luciferase gene; assay type: cell-based; conditions: mouse, rat, and human hepatocytes, luciferase reporter

SMILES | Induction of SHP expression [1] | Reduction of the expression of CYP7α1 mRNA [1] | Direct cell toxicity [2] | Induction of BSEP mRNA expression [1] | Efficacy (relative recruitment of the SRC1 peptide to FXR where CDCA = 100%) ([3]; FRET, human FXR, mean ± SE, n = 4) | pEC50 ([3]; FRET, human FXR, mean ± SE, n = 4, read-out: Cell-Free Assay EC50) | Potency in activating FXR relative to CDCA (concentration for Scr-1 recruitment lower than CDCA) [3] | Potency in activating FXR relative to CDCA (concentration for Scr-1 recruitment lower than CDCA) ([3]; listed as compound (Ia)) | pEC50 ([3]; concentrations ranging from 1 nM to 100 μM, read-out: EC50 as FXR ligand in cell free FRET assay (Table 2 summary)) | Transactivation of FXR [4] | Transactivation of FXR ([4]; listed as compound (Ia)) | Selectivity for FXR over other nuclear receptors [5] | melting point
C[C@H](CCC(=O)O)[C@H]1CC[C@H]2[C@@H]3[C@H](O)C[C@@H]4C[C@H](O)CC[C@]4(C)[C@H]3CC[C@]12C [CDCA, chenodeoxycholic acid, reference compound] | 2-3 fold | 60-70% | no direct cell toxicity |  |  |  |  |  |  |  |  |  | 
CC[C@H]1[C@@H](O)[C@@H]2[C@H](CC[C@]3(C)[C@@H]([C@H](C)CCC(=O)O)CC[C@@H]23)[C@@]2(C)CC[C@@H](O)C[C@@H]12 [Compound 6-ECDCA, 6-ethyl-chenodeoxycholic acid] |  |  | no direct cell toxicity |  |  |  |  |  |  |  |  |  | 
C[C@H](CCNC(=O)OC/C=C/c1ccccc1)[C@H]1CCC2C3C(CC[C@@]21C)[C@@]1(C)CC[C@@H](O)CC1C[C@H]3O (stereo partly drawn) [Compound (Ia), 23-N-Carbacinnamyloxy-3α,7α-dihydroxy-5β-norcholanylamine] |  |  | no direct cell toxicity | approximately 13 fold | 66% | 6.23 | approximately 20 fold | ~20 fold | ~6.30 | transactivation | transactivates FXR | selective FXR ligand | 79 to 84 °C
